Data set [1] has as its target T1, human calcitonin receptor (Homo sapiens, UniProt P30988).
T1 construct: expressed in transfected cells; host or cells: BHK570
T1 sequence (P30988 25-474): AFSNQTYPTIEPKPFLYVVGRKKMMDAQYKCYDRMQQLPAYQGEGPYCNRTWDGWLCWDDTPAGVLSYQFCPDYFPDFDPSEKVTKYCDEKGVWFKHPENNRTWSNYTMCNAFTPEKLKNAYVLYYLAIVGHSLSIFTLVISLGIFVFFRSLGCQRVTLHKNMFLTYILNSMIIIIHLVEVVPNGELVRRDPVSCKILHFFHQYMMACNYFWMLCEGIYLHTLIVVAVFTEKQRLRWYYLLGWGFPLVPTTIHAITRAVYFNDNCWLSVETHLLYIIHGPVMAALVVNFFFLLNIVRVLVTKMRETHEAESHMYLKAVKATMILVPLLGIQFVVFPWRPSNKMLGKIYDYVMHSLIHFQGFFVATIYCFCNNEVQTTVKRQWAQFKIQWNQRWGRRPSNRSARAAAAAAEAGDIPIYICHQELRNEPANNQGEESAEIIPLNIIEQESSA
Kind of data set: Assay (II)a functional CRE-luciferase assay, human calcitonin receptor. The data set is classed as cell-based. The conditions noted are these: Table 7; human calcitonin (CTa) receptor.

A short description of data set [2]: Assay (III) ThT fibrillation assay for physical stability. The data set is classed as physicochemical. A digest of the protocol:
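Freshly prepared formulations, pH-adjusted, with 1 μM ThT; four or eight replicates incubated at 37 °C under 960 rpm orbital shaking. Fluorescence (ex 444/em 485 nm) read every 20 min; […]. Peptide concentration measured by RP-HPLC before and after the run.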

Data set [3] is described as follows: Assay (IV) determination of solubility. The data set is classed as physicochemical. In a few lines:
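Solubility was profiled across pH 3.0–8.0 after 18 hours at room temperature: a ~500 nmol/ml aqueous polypeptide solution was diluted 1:1 into 100 mM glycylglycine or bistrispropane buffers. After centrifugation, HPLC gave the dissolved concentration.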

Data set [4] deals with T2, human amylin receptor (amylin 3(a) receptor: human calcitonin receptor + RAMP-3) (Homo sapiens, UniProt O60896+P30988).
T2 construct: expressed in transfected cells; host or cells: BHK570
T2 sequence (P30988 25-474): T1 sequence (P30988 25-474)
T2 sequence (O60896 24-148 partner): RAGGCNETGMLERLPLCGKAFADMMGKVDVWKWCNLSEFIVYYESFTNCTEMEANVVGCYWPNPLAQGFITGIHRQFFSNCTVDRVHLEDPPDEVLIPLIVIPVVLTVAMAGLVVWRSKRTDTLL
In words: Assay (II)a functional CRE-luciferase assay, human amylin receptor. Type of data set: cell-based. Particulars: Table 2; BHK amylin 3(a)-receptor/CRE-luc cells.

[5] abbreviates: bistrispropane buffer, pH 6, pH 6.0, read-out: Solubility pH 6.0.
The mark [6] stands for this setting: bistrispropane buffer, pH 6.5, pH 6.5, read-out: Solubility pH 6.5.
[7] abbreviates: bistrispropane buffer, pH 7, pH 7.0, read-out: Solubility pH 7.0.
[8] abbreviates: bistrispropane buffer, pH 7.5, pH 7.5, read-out: Solubility pH 7.5.
[9] abbreviates: bistrispropane buffer, pH 8, pH 8.0, read-out: Solubility pH 8.0.
[10] abbreviates: glycylglycine buffer, pH 3, pH 3.0, read-out: Solubility pH 3.0.
[11] abbreviates: glycylglycine buffer, pH 4, pH 4.0, 18 hours at room temperature, Table 2, read-out: Solubility pH 4.0.
[12] abbreviates: glycylglycine buffer, pH 4, pH 4.0, read-out: Solubility pH 4.0.
Where [13] appears, read: glycylglycine buffer, pH 5, pH 5.0, read-out: Solubility pH 5.0.

Structures are written as SMILES. ≈ marks a conversion by molar mass, not a printed value. Where two headings read alike, the source gives them in different places. Starred links: 1 amine or outer side, 2 acyl side, 3 side chain; linkers in the order of their positions; H or OH if unused. Positions of bridges follow the written chain, without caps; N, C: chain ends. Residues, ends and D or L forms follow the SMILES beside them. *: point of attachment. C20 diacid = O=C(O)CCCCCCCCCCCCCCCCCCC(=O)*; γGlu = O=C(O)[C@H](CCC(=O)[*:2])N[*:1]

For `CC[C@H](C)[C@H](NC(=O)[C@@H]1CCCN1C(=O)CNC(=O)[C@H](Cc1ccccc1)NC(=O)[C@H](CC(N)=O)NC(=O)[C@H](CC(N)=O)NC(=O)[C@H](CO)NC(=O)[C@H](CO)NC(=O)[C@H](Cc1c[nH]cn1)NC(=O)[C@H](Cc1c[nH]cn1)NC(=O)[C@H](CC(C)C)NC(=O)[C@H](Cc1ccccc1)NC(=O)[C@H](CCC(=O)O)NC(=O)[C@H](C)NC(=O)[C@H](CC(C)C)NC(=O)[C@H](CCCNC(=N)N)NC(=O)[C@H](CCC(N)=O)NC(=O)[C@@H](NC(=O)[C@H](C)NC(=O)[C@@H]1CSSC[C@H](NC(=O)[C@H](CCCCN)NC(=O)CC[C@H](NC(=O)CCCCCCCCCCCCCCCCCCC(=O)O)C(=O)O)C(=O)N[C@@H](CC(N)=O)C(=O)N[C@@H]([C@@H](C)O)C(=O)N[C@@H](C)C(=O)N[C@@H]([C@@H](C)O)C(=O)N1)[C@@H](C)O)C(=O)N[C@@H](CC(C)C)C(=O)N1CCC[C@H]1C(=O)N1CCC[C@H]1C(=O)N[C@H](C(=O)N[C@@H](CC(N)=O)C(=O)N[C@H](C(=O)NCC(=O)N[C@@H](CO)C(=O)N[C@@H](CCCNC(=N)N)C(=O)N[C@H](C(=O)N[C@@H](Cc1ccc(O)cc1)C(N)=O)[C@@H](C)O)C(C)C)[C@@H](C)O` [Example 112, N-alpha-[(S)-4-Carboxy-4-(19-carboxynonadecanoylamino)butyryl]-[Glu14,His17,Arg35]-pramlintide] ({C20 diacid-γGlu}-KCNTATCATQRLAEFLHHSSNNFGPILPPTNVGSRTY-NH2; disulfide 2-7 (inferred); C-terminus assumed), the figures for the EC50 in data set [1] and in data set [4] were 0.104 nM and 0.098 nM, respectively. For the same molecule, the “ThT pH 4.0 lag time” value in data set [2] (ThT fibrillation assay) is on record as over 45 h. Besides, the “ThT pH 4.0 lag time (h)” value in data set [2] (ThT fibrillation assay) is reported as over 45 h. The solubility at 18 h in data set [3] (setting [5]) was over 200 µM; in data set [3] (setting [6]), 161 µM (≈ 724 µg/mL); in data set [3] (setting [7]), 23 µM (≈ 103 µg/mL); in data set [3] (setting [8]) it was 4 µM (≈ 18 µg/mL); in data set [3] (setting [9]), 2 µM (≈ 9 µg/mL); in data set [3] (setting [10]) it was over 200 µM. Also, the solubility at 18 h in data set [3] (setting [11]), in data set [3] (setting [12]) and in data set [3] (setting [13]) was over 200 µM in each case.

Consider `CC[C@H](C)[C@H](NC(=O)[C@@H]1CCCN1C(=O)CNC(=O)[C@H](Cc1ccccc1)NC(=O)[C@H](CC(N)=O)NC(=O)[C@H](CC(N)=O)NC(=O)[C@H](CO)NC(=O)[C@H](CO)NC(=O)[C@H](Cc1c[nH]cn1)NC(=O)[C@H](Cc1c[nH]cn1)NC(=O)[C@H](CC(C)C)NC(=O)[C@H](Cc1ccccc1)NC(=O)[C@H](CCC(=O)O)NC(=O)[C@H](C)NC(=O)[C@H](CC(C)C)NC(=O)[C@H](CCCNC(=N)N)NC(=O)[C@H](CCC(N)=O)NC(=O)[C@@H](NC(=O)[C@H](C)NC(=O)[C@@H]1CSSC[C@H](NC(=O)[C@H](CCCCN)NC(=O)CC[C@H](NC(=O)CCCCCCCCCCCCCCCCCCC(=O)O)C(=O)O)C(=O)N[C@@H](CC(N)=O)C(=O)N[C@@H]([C@@H](C)O)C(=O)N[C@@H](C)C(=O)N[C@@H]([C@@H](C)O)C(=O)N1)[C@@H](C)O)C(=O)N[C@@H](CC(C)C)C(=O)N1CCC[C@H]1C(=O)N1CCC[C@H]1C(=O)N[C@H](C(=O)N[C@@H](CC(N)=O)C(=O)N[C@H](C(=O)NCC(=O)N[C@@H](CO)C(=O)N[C@@H](CCCCN)C(=O)N[C@H](C(=O)N[C@@H](Cc1ccc(O)cc1)C(N)=O)[C@@H](C)O)C(C)C)[C@@H](C)O` [Example 113, N-alpha-[(S)-4-Carboxy-4-(19-carboxynonadecanoylamino)butyryl]-[Glu14,His17,Lys35]-pramlintide] ({C20 diacid-γGlu}-KCNTATCATQRLAEFLHHSSNNFGPILPPTNVGSKTY-NH2; disulfide 2-7 (inferred)), for which the EC50 in data set [1] came to 0.13 nM; in data set [4], 0.134 nM. Further, the “ThT pH 4.0 lag time” value in data set [2] (Table 8), in data set [2] (Table 9) and in data set [2] (ThT fibrillation assay) was over 45 h in each case. The “ThT pH 4.0 lag time (h)” value in data set [2] (ThT fibrillation assay) is on record as over 45 h. Besides, the solubility at 18 h in data set [3] (setting [5]) is over 200 µM; in data set [3] (setting [6]), over 200 µM; in data set [3] (bistrispropane buffer, pH 7, pH 7.0, 18 hours at room temperature, Table 3, read-out: Solubility pH 7.0), over 200 µM; in data set [3] (bistrispropane buffer, pH 7, pH 7.0, Table 8, read-out: Solubility pH 7.0) it was over 200 µM; in data set [3] (bistrispropane buffer, pH 7, pH 7.0, Table 9, read-out: Solubility pH 7.0) it was over 200 µM; in data set [3] (setting [7]), over 200 µM. For the same molecule, the solubility at 18 h in data set [3] (bistrispropane buffer, pH 7.5, pH 7.5, Table 9, read-out: Solubility pH 7.5) was 188 µM (≈ 840 µg/mL); in data set [3] (setting [8]) it was 188 µM (≈ 840 µg/mL); in data set [3] (setting [9]) it was 124 µM (≈ 554 µg/mL); in data set [3] (setting [10]), over 200 µM; in data set [3] (setting [11]), over 200 µM; in data set [3] (setting [12]) it was over 200 µM. The solubility at 18 h in data set [3] (setting [13]) is over 200 µM.

With `CC[C@H](C)[C@H](NC(=O)[C@@H]1CCCN1C(=O)CNC(=O)[C@H](Cc1ccccc1)NC(=O)[C@H](CC(N)=O)NC(=O)[C@H](CC(N)=O)NC(=O)[C@H](CO)NC(=O)[C@H](CO)NC(=O)[C@H](Cc1c[nH]cn1)NC(=O)[C@H](Cc1c[nH]cn1)NC(=O)[C@H](CC(C)C)NC(=O)[C@H](Cc1ccccc1)NC(=O)[C@H](CCC(=O)O)NC(=O)[C@H](C)NC(=O)[C@H](CC(C)C)NC(=O)[C@H](CCCNC(=N)N)NC(=O)[C@H](CCC(N)=O)NC(=O)[C@@H](NC(=O)[C@H](C)NC(=O)[C@@H]1CSSC[C@H](NC(=O)[C@H](CCCCN)NC(=O)CC[C@H](NC(=O)CCCCCCCCCCCCCCCCCCC(=O)O)C(=O)O)C(=O)N[C@@H](CC(N)=O)C(=O)N[C@@H]([C@@H](C)O)C(=O)N[C@@H](C)C(=O)N[C@@H]([C@@H](C)O)C(=O)N1)[C@@H](C)O)C(=O)N[C@@H](CC(C)C)C(=O)N1CCC[C@H]1C(=O)N1CCC[C@H]1C(=O)N[C@H](C(=O)N[C@@H](CC(N)=O)C(=O)N[C@H](C(=O)NCC(=O)N[C@@H](CO)C(=O)N[C@@H](CC(N)=O)C(=O)N[C@@H](Cc1c[nH]cn1)C(=O)N[C@@H](Cc1ccc(O)cc1)C(N)=O)C(C)C)[C@@H](C)O` [Example 114, N-alpha-[(S)-4-Carboxy-4-(19-carboxynonadecanoylamino)butyryl]-[Glu14,His17,His36]-pramlintide] ({C20 diacid-γGlu}-KCNTATCATQRLAEFLHHSSNNFGPILPPTNVGSNHY-NH2; disulfide 2-7 (inferred)), the results for the EC50 in data set [1] and in data set [4] were 0.113 nM and 0.382 nM, respectively. For the same molecule, the “ThT pH 4.0 lag time” value in data set [2] (ThT fibrillation assay) is recorded as over 45 h. The “ThT pH 4.0 lag time (h)” value in data set [2] (ThT fibrillation assay) is on record as over 45 h. The solubility at 18 h in data set [3] (setting [5]) was over 200 µM; in data set [3] (setting [6]), 73 µM (≈ 328 µg/mL); in data set [3] (setting [7]) it was 14 µM (≈ 62.9 µg/mL); in data set [3] (setting [8]) it was 31 µM (≈ 139 µg/mL); in data set [3] (setting [9]) it was 79 µM (≈ 355 µg/mL); in data set [3] (setting [10]) it was over 200 µM. The solubility at 18 h in data set [3] (setting [11]), in data set [3] (setting [12]) and in data set [3] (setting [13]) was over 200 µM in each case.

The values are drawn from patent US8722849B2, “Polypeptides” (Novo Nordisk A/S, priority 2011, dated 2014).
